# In US11779564B2, “Methods and compositions for treating bile acid diarrhea, diarrhea associated with small intestine resection or gallbladder removal, and short bowel syndrome” (NAPO PHARMACEUTICALS, INC., priority 2017, dated 2023):
# Key:
# [1] = system: chronic diarrhea in patient with SBS; assay: Case report: SBS patient with chronic diarrhea (Example 1); conditions: same patient, attempted for 12 years before crofelemer
# [2] = in vivo, cited from earlier work
Compound,effectiveness in relieving diarrhea symptoms (earlier treatments) [1],systemic bioavailability ([2]; human),absorption from the GI tract [2],tolerability [2]
CCOC(=O)C1(c2ccccc2)CCN(CCC(C#N)(c2ccccc2)c2ccccc2)CC1 [diphenoxylate],None of which were effective,–,–,–
COc1ccc2c3c1O[C@H]1[C@@H](O)C=C[C@H]4[C@@H](C2)N(C)CC[C@@]341 [codeine],None of which were effective,–,–,–
crofelemer,–,virtually no systemic bioavailability,little or no absorption,well tolerated
CN(C)C(=O)C(CCN1CCC(O)(c2ccc(Cl)cc2)CC1)(c1ccccc1)c1ccccc1 [loperamide],None of which were effective,–,–,–
CN1[C@@H]2CC[C@H]1C[C@@H](OC(=O)C(CO)c1ccccc1)C2 (stereo partly shown) [atropine],None of which were effective,–,–,–
